For this experiment, the target named is T1, hT2R54 (Homo sapiens, UniProt P59534).
T1 construct: expressed in transfected cells; it overexpresses a promiscuous G protein
T1 sequence (P59534 1-338): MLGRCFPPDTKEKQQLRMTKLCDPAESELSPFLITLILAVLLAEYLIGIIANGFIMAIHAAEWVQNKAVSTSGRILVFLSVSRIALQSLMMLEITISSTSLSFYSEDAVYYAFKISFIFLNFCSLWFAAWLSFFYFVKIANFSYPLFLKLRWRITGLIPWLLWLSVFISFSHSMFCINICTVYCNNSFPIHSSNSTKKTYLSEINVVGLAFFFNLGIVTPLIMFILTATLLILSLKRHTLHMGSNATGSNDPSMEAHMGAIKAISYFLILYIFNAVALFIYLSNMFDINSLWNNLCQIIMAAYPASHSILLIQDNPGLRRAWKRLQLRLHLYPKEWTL
Nature of the experiment: Cell-based assay for measuring hT2R54 inhibition (FLIPR calcium, Fluo4AM, acetaminophen as bitter agonist). To be noted: Table 2; cells stably expressing hT2R54 and a promiscuous G protein; read-out: hT2R54 IC50. The procedure, abridged:
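The readout was FLIPR calcium (Fluo4AM, 10 s baseline, 3 min post-addition) in cells stably carrying hT2R54 plus a promiscuous G protein, with host cells lacking hT2R54 as counter-control. Acetaminophen concentration series were tested with and without set test-compound levels. Half-maximal block of the agonist response gave the EC50/IC50.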

Bounds are passed on as bounds.

What is called IC50 is the concentration needed to halve the response being measured. As for `COCc1nc(C(=O)N2CCN(CC(=O)Nc3cc4c(cc3OC)OCO4)CC2)co1` [compound 361], the IC50 was 546 nM.

In the case of `COc1cc2c(cc1NC(=O)CN1CCN(C(=O)c3ncoc3C)CC1)OCO2` [compound 362], the IC50 came to 567 nM.

Take `COc1cc2c(cc1NC(=O)CN1CCN(C(=O)c3cn(C)nc3C)CC1)OCO2` [compound 363]: the IC50 was 600 nM.

Regarding `COc1cc2c(cc1NC(=O)CN1CCN(C(C)=O)CC1)OCO2` [compound 364], the IC50 was determined as 1560 nM.

In the case of `COc1cc2c(cc1NC(=O)CN1CCN(C(=O)CN3CCOCC3)CC1)OCO2` [compound 365], the IC50 was found to be 2640 nM.

Regarding `COc1cc2c(cc1NC(=O)CN1CCN(C(=O)c3cccc(F)c3)CC1)OCO2` [compound 367], the half-maximal inhibitory concentration (IC50) stood at 600 nM.

As for `COc1ccc(C(=O)N2CCN(CC(=O)Nc3cc4c(cc3OC)OCO4)CC2)cc1` [compound 368], the IC50 turned out to be 600 nM.

Consider `COc1cccc(C(=O)N2CCN(CC(=O)Nc3cc4c(cc3OC)OCO4)CC2)c1` [compound 369], for which the half-inhibitory concentration (IC50) stood at 300 nM.

For the compound `COc1cc2c(cc1NC(=O)CN1CCN(C(=O)Cc3ccccc3)CC1)OCO2` [compound 370], the concentration for half-maximal inhibition (IC50) came out at 400 nM.

Consider `COc1cc2c(cc1NC(=O)CN1CCN(C(=O)Cc3ccc(F)cc3)CC1)OCO2` [compound 371], for which the concentration for half-maximal inhibition (IC50) is 900 nM.

Take `COc1cc2c(cc1NC(=O)CN1CCN(C(=O)Cc3cccc(O)c3)CC1)OCO2` [compound 372]: the half-inhibitory concentration (IC50) turned out to be 400 nM.

On to `COc1cc2c(cc1NC(=O)CN1CCN(C(=O)Cc3ccc(O)cc3)CC1)OCO2` [compound 373], for which the IC50 was 700 nM.

Consider `COc1cccc(CC(=O)N2CCN(CC(=O)Nc3cc4c(cc3OC)OCO4)CC2)c1` [compound 374], for which the half-maximal inhibitory concentration (IC50) came out at 300 nM.

Consider `COc1ccc(CC(=O)N2CCN(CC(=O)Nc3cc4c(cc3OC)OCO4)CC2)cc1` [compound 375], for which the IC50 came to 1000 nM.

With `COc1cc2c(cc1NC(=O)CN1CCN(C(=O)Cc3ccccc3F)CC1)OCO2` [compound 376], the IC50 was determined as 200 nM.

On to `COc1cc2c(cc1NC(=O)CN1CCN(C(=O)Cc3cccc(F)c3)CC1)OCO2` [compound 377], for which the IC50 is 200 nM.

Take `COc1cc2c(cc1NC(=O)CN1CCN(C(=O)Cc3ccncc3)CC1)OCO2` [compound 378]: the IC50 was determined as 1100 nM.

`COc1cc2c(cc1NC(=O)CN1CCN(C(=O)c3ccccc3)CC1)OCO2` [compound 379]: the 50% inhibitory concentration (IC50) was determined as 400 nM.

On to `COc1cc2c(cc1NC(=O)CN1CCN(C(=O)c3ccc(O)cc3)CC1)OCO2` [compound 380], for which the IC50 came to 800 nM.

For the compound `COc1cc2c(cc1NC(=O)CN1CCN(C(=O)c3ccc(O)c(O)c3)CC1)OCO2` [compound 381], the IC50 was 5000 nM.

With `COc1cc2c(cc1NC(=O)CN1CCN(C(=O)c3cccc(C#N)c3)CC1)OCO2` [compound 382], the IC50 was found to be 400 nM.

As to `COc1cc2c(cc1NC(=O)CN1CCN(C(=O)c3cccc(CO)c3)CC1)OCO2` [compound 383], the IC50 stood at 600 nM.

For the compound `COc1cc2c(cc1NC(=O)CN1CCN(C(=O)c3cc(C)oc3C)CC1)OCO2` [compound 384], the half-maximal inhibitory concentration (IC50) was 200 nM.

With `COc1cc2c(cc1NC(=O)CN1CCN(C(=O)c3cc[nH]n3)CC1)OCO2` [compound 385], the IC50 came out at 700 nM.

Take `COc1cc2c(cc1NC(=O)CN1CCN(C(=O)c3ccoc3)CC1)OCO2` [compound 386]: the half-inhibitory concentration (IC50) is 200 nM.

As for `COc1cc2c(cc1NC(=O)CN1CCN(C(=O)c3cnon3)CC1)OCO2` [compound 387], the half-maximal inhibitory concentration (IC50) is greater than 10000 nM.

Regarding `COc1cc2c(cc1NC(=O)CN1CCN(C(=O)c3ncn[nH]3)CC1)OCO2` [compound 388], the 50% inhibitory concentration (IC50) was determined as 2600 nM.

Regarding `COc1cc2c(cc1NC(=O)CN1CCN(C(=O)c3cc(C)on3)CC1)OCO2` [compound 389], the half-maximal inhibitory concentration (IC50) came to 400 nM.

Turning to `COc1cc2c(cc1NC(=O)CN1CCN(C(=O)c3n[nH]cc3C)CC1)OCO2` [compound 390], the IC50 was 2700 nM.

`COc1cc2c(cc1NC(=O)CN1CCN(C(=O)c3nc(C)c[nH]3)CC1)OCO2` [compound 391]: the IC50 was 200 nM.

(Values after patent US12295396B2, “Antagonists of T2R54 and compositions and uses thereof” (Firmenich Incorporated, priority 2018, dated 2025).)
